Assay results reported in patent publication US12240853B2, “Compounds useful in HIV therapy” (GlaxoSmithKline Intellectual Property (No.2) Limited, priority 2019, dated 2025).
pIC50: −log10 of the molar value.

Legend:
[1] = test system: HIV pseudotyped virus (NL4-3 provirus, luciferase reporter), WT; experiment: PSV (pseudotyped virus) assay, WT; details: Human immunodeficiency virus 1, NL43, 72 h, read-out: WT IC50
Description: A pseudotyped virus assay (PSV) was used to assess the potency of the HIV inhibitor.
The PSV assay was performed by using U373 cells stably transformed to express human CD4, the primary receptor for HIV entry and either human CXCR4 or human CCR5 which are the co-receptors required for HIV entry as target cells for infection. […] This dose-range was applied to U373 cells and the pre-made pseudotyped virus added. The amount of luciferase signal produced after 3 days of culture was used to reflect the level of pseudotyped virus infection. An IC50, or the concentration of inhibitor required to reduce PSV infection by 50% from the infection containing no inhibitor was calculated. […] IC50 values were determined from a 10 point dose response curve using 3-4-fold serial dilution for each compound, which spans a concentration range>1000 fold.
These values are plotted against the molar compound concentrations using the standard four parameter logistic equation: y=((Vmax*x^n)/(K^n+x^n))+Y2

[2] = Example 18 rat PK studies (SC and IM); assay type: in vivo, Wistar Han rats; details: single SC or IM injection, 20 mg parent/kg
Excerpt: Example 18 referenced herein was made in accordance with Synthesis B. A total of seven naïve male Wistar Han rats, 250-275 g, were received from the supplier equipped with a surgically-implanted jugular vein catheter (JVC) to facilitate blood sample collection during the first several days of the study. Following an acclimation period, the animals were assigned to the study based on acceptable health as determined by a staff veterinarian and catheter patency. Six animals were placed into two groups of 3 rats per group. Fasting of the animals before or after dosing was not required.
(§1) On Day 1 each animal in Group 1 received a single intrascapular subcutaneous injection of prepared test article at a target dose level of 20 mg parent/kg and at a dose volume of 0.49 mL/kg. Each animal in Group 2 received a single intramuscular injection of prepared test article into a thigh muscle at a target dose level of 20 mg parent/kg and at a dose volume of 0.49 mL/kg. The animals were manually restrained for dosing and were not sedated. […]
Interim blood samples for PK (Groups 1A and 2A) were collected from the jugular vein catheter or by venipuncture of a jugular vein if the catheter was not patent. […] The PK plasma samples were analyzed every 1-2 weeks by the Testing Facility to determine the concentration of prodrug and parent using an LC-MS/MS Research Grade Assay (RGA-1) with sensitivity to 0.1 ng/mL. […]

[3] = test system: HIV pseudotyped virus, M184V; assay type: cell-based; details: U373 cells (CD4, CXCR4 or CCR5), luciferase signal after 3 days
[4] = Example 18 dog PK studies (SC and IM); assay type: in vivo, beagle dogs; details: beagle dog, single SC or IM injection, 5 mg parent/kg
Excerpt: Example 18 referenced herein was made in accordance with Synthesis B. Six male beagle dogs (+1 spare) were selected from the Testing Facility's colony of non-naïve animals. The animals were assigned to the study based on acceptable health as determined by a Testing Facility veterinarian. Six animals were selected and placed into two groups of three animals each. Fasting of the animals before or after dosing was not required.
as §1, with “5” for “20”, “parent/kg in 2% P404/2% PEG3350/PBS (dose concentration 97.36 mg/mL prodrug)” for “parent/kg”, “0.1” for “0.49”, “in” for “into”, “hind quarter (quadriceps)” for “thigh muscle”, “sedated. The dose sites were clipped of hair and wiped with alcohol before dosing.” for “sedated.”
The PK plasma samples were analyzed approximately every two weeks by the Testing Facility to determine the concentration of Example 18 (prodrug) and parent using an LC-MS/MS Research Grade Assay (RGA-1) with sensitivity to 0.1 ng/mL. […]

Compound: C#C[C@]1(COC(=O)CCCCCCCCC)O[C@@H](n2cnc3c(N)nc(F)nc32)C[C@@H]1OC(=O)CCCCCCCCC [Example 18, (2R,3S,5R)-5-(6-amino-2-fluoro-9H-purin-9-yl)-2-((decanoyloxy)methyl)-2-ethynyltetrahydrofuran-3-yl Decanoate]
- pIC50 [1]: 8.00
- Clinical observations and dose site reactions [2]: All animals appeared normal at the time of each observation and no dose site reactions were observed
- pIC50 [3]: 7.14
- Clinical observations and dose site reactions [4]: All animals appeared normal at the time of each observation and no dose site reactions were observed
